Data published in paper PMC9898036, “VIP152 is a selective CDK9 inhibitor with pre-clinical in vitro and in vivo efficacy in chronic lymphocytic leukemia” (Leukemia, 2022).

Columns and labels:
IRAK1 = IRAK1 (Homo sapiens, UniProt P51617); assay: KINOMEscan: IRAK1; format: binding
Protocol: The structure and synthesis of VIP152 were recently described by Lücking et al.. (Fig. 1A); however, the selectivity of the molecule in cellular systems has yet to be explored. […] We also performed this experiment at 1000 nM, where CDK9 was inhibited at 99%. […] We found a strong concordance between our data and those of Lücking when comparing the most inhibited kinases. Potential off-target effects of VIP152 were next tested in vitro at a concentration of 10 µM for off-target activity against a broad range of receptors, transporters, ion channels, and enzymes (n = 138) using the Eurofins Diversity Panel.
Kinomescan Kinase Profiling Assay
Kinomescan Assay was performed at DiscoverRX and described in Fabian, et al. 2005, Nat.
Biotechnol. In brief, kinases were produced and subsequently tagged with DNA for qPCR detection.
Streptavidin-coated magnetic beads were bound to biotinylated kinase ligands to serve as a solid support.
VIP152 was dissolved in DMSO and tested across a 10 serial threefold dilution set and compared to a test compound and a DMSO control. Kinases which were inhibited by VIP152 would not be bound to the solid-support resulting in decreased substrate for the qPCR reaction. Kinome map was produced via TreeSpot Analysis from DiscoverRX. […]
NanoBRETTM Target Engagement Assay Protocol […]
Complete 20X NanoBRET Tracer Reagent was prepared with Tracer Dilution Buffer and dispensed at a ratio of 1:20 Reagent to cells in the tube. The cell

CLL patient samples = assay: Western blot of CLL patient samples; format: cell-based, human; conditions: 1 µM, 8 h
Protocol: Lysate concentration was quantified using Pierce™ BCA Protein Assay Kit (ThermoFiser Scientific – cat. 23225) and proteins were analyzed via immunoblot. A full list of antibodies may be found in the supplementary methods section. All images are representative of three independent experiments.
P-TEFb’s role in regulating transcription through POLII CTD phosphorylation is a canonical function of this complex. To interrogate the transcriptional changes associated with VIP152 treatment, we treated B-cells, isolated from four patients with treatment-naïve CLL, with 1 µM VIP152 or DMSO for two hours followed by fluorescence-assisted cell sorting for 500 live (Sytox^−), CD45^+/CD5^+/CD19^+ cells (Fig. 3A). Our group has previously defined an analysis pipeline, named CLEAR, which identifies evenly distributed reads for differentially expressed gene (DEG) analysis. […] When we looked at the expression of these differentially abundant genes via an unsupervised clustered heatmap, we noted that there was high concordance between the patient samples with clustering dependent on treatment group (Fig. 3C). The treatment did induce decreased transcript abundance of genes previously reported to be controlled by CDK9 activity, namely JUNB, BTG1, and MCL1 [45, 46]. Downregulation of the anti-apoptotic MCL1 (LFC: −1.231056 & p-value = 0.02) likely contributes to the susceptibility of primary CLL cells to apoptosis (Fig. 2F, G). […] It has been established that AU-rich element (ARE) mRNA molecules are under tight temporal regulation and control a variety of cellular processes. Moreover, the relationship between P-TEFb mediated transcription and ARE-bearing mRNA has previously been described. […] We appreciate from our limiting-cell RNA sequencing experiments that the loss of tristetrapolin (ZFP36) transcripts (LFC: −4.02; adjusted p-value: 7.97*10^−40) and the upregulation of ribosomal transcripts, likely correspond to a possible compensatory mechanism by which these cells attempt to improve translational output and maximize transcript maintenance in response to VIP152-induced transcriptional shutdown. […] We looked at transcripts which had been shown by photoactivatable ribonucleoside cross-linking and immunoprecipitation (PAR-CLIP) to interact with ZFP36 [50]. […]
Fig. 3 VIP152 induces rapid transcriptomic changes. […] E–G 7 CLL patient samples were treated for 8 h with 1 µM VIP152 and then analyzed for protein expression by western blot (E, F) and ZFP36, ZFP36L1, and ZFP36L2 expression by qRT-PCR (G). H–L 5 CLL patient samples were treated for 8 h with 1 µM VIP152 and then supplemented with 500 nM Actinomycin-D. RNA was taken at varying timepoints and analyzed via qRT-PCR. M mRNA half-lives of analyzed transcripts in (H–L) as determined by nonlinear regression using a one-phase decay method.

α2C receptor = biological target: T1, α2C receptor (Homo sapiens, UniProt P18825); assay: Eurofins Diversity Panel: adrenergic α2C receptor; format: binding
T1 construct: purchased Eurofins
T1 sequence (P18825 whole entry): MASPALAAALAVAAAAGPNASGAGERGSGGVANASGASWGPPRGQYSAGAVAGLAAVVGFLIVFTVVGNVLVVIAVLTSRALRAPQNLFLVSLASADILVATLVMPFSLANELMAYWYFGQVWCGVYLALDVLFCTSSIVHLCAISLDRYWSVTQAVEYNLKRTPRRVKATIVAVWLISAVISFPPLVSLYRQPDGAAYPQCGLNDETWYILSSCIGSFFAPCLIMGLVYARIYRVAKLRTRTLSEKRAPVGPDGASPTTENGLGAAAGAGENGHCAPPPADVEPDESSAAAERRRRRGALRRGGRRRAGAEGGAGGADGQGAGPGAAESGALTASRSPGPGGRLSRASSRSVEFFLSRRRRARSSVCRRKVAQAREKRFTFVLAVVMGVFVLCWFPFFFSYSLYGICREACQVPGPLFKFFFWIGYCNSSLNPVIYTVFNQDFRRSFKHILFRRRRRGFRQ

Rolipram = assay: Eurofins Diversity Panel; format: binding; conditions: rat, Conc. 10 μM
Sigma σ1 = biological target: T2, Sigma σ1 (Homo sapiens, UniProt Q99720); assay: Eurofins Diversity Panel; format: binding; conditions: hum
T2 construct: purchased Eurofins
T2 sequence (Q99720 whole entry): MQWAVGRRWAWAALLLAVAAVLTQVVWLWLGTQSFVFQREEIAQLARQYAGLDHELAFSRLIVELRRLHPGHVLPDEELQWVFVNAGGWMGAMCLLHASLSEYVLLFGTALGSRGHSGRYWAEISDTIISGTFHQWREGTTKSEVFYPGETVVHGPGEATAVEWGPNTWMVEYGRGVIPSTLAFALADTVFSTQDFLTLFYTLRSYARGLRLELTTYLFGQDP

STK36 = STK36 (Homo sapiens, UniProt Q9NRP7); assay: KINOMEscan: STK36; format: binding; conditions: 100 nM, read-out: Percent Control
Sequence of STK36 (Q9NRP7 whole entry): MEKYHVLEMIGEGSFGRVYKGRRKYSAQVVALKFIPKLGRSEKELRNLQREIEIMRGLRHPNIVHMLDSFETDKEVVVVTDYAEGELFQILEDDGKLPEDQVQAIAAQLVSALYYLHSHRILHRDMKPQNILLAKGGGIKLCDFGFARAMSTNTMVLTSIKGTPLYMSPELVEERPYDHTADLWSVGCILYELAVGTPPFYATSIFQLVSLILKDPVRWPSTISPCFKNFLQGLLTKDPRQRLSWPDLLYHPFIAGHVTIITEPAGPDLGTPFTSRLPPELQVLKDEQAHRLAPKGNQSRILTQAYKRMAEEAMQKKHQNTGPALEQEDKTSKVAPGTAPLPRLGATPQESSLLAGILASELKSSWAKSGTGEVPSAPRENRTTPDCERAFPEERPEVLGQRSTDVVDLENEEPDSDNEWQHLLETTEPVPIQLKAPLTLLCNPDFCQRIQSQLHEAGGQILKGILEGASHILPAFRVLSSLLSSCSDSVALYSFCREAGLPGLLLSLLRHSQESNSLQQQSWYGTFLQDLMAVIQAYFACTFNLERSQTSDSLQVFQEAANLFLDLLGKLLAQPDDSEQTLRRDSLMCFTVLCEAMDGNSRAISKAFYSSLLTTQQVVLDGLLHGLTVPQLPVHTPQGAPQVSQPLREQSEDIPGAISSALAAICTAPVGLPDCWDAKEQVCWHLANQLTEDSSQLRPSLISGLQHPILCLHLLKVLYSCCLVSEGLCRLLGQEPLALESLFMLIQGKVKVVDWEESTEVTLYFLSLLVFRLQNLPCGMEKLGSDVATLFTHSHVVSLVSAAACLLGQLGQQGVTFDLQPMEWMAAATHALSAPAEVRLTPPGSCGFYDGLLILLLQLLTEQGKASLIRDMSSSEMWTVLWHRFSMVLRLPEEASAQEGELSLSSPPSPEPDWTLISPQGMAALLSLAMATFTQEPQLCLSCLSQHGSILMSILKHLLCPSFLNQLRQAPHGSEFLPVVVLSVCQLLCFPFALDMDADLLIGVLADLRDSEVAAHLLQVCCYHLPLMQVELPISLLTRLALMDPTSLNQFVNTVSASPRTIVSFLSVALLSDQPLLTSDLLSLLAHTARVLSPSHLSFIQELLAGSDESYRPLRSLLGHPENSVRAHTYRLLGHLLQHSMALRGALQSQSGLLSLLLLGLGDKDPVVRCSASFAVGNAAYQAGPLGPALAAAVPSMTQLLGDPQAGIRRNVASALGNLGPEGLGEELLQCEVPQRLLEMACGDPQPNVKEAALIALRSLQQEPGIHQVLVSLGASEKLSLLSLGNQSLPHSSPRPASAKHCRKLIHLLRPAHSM

BIKE = BIKE (Homo sapiens, UniProt Q9NSY1); assay: KINOMEscan: BIKE; format: binding; conditions: 1000 nM, read-out: Percent Control
DAPK1 = DAPK1 (Homo sapiens, UniProt P53355); assay: KINOMEscan: DAPK1; format: binding; conditions: 1000 nM, read-out: Percent Control
FLT3(ITD,D835V) = assay: KINOMEscan: FLT3(ITD,D835V); format: binding, human; conditions: 1000 nM
IKK-epsilon = IKK-epsilon (Homo sapiens, UniProt Q14164); assay: KINOMEscan: IKK-epsilon; format: binding; conditions: 1000 nM, read-out: Percent Control
Sequence of IKK-epsilon (Q14164 whole entry): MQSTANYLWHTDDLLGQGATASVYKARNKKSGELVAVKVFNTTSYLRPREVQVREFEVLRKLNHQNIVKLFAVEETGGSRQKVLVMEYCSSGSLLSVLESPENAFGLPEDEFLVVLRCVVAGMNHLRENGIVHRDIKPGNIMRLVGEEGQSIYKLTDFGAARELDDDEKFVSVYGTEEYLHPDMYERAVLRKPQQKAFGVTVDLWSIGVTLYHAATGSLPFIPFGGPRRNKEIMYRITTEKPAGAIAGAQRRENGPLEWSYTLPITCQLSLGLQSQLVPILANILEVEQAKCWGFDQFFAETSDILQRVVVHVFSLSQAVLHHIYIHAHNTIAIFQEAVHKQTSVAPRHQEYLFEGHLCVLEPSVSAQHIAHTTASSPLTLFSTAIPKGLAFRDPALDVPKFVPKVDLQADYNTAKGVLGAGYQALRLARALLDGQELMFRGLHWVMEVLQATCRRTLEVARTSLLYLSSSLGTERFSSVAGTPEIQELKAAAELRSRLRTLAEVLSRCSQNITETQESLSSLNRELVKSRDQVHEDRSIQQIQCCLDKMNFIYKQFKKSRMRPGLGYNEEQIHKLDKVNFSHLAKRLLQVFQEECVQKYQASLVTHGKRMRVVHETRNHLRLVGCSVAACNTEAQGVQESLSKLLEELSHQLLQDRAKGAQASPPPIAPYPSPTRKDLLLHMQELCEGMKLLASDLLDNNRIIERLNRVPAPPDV

LRRK2 = LRRK2 (Homo sapiens, UniProt Q5S007); assay: KINOMEscan: LRRK2; format: binding; conditions: 1000 nM, read-out: Percent Control
MAK = MAK (Homo sapiens, UniProt P20794); assay: KINOMEscan: MAK; format: binding; conditions: 1000 nM, read-out: Percent Control
Sequence of MAK (P20794 whole entry): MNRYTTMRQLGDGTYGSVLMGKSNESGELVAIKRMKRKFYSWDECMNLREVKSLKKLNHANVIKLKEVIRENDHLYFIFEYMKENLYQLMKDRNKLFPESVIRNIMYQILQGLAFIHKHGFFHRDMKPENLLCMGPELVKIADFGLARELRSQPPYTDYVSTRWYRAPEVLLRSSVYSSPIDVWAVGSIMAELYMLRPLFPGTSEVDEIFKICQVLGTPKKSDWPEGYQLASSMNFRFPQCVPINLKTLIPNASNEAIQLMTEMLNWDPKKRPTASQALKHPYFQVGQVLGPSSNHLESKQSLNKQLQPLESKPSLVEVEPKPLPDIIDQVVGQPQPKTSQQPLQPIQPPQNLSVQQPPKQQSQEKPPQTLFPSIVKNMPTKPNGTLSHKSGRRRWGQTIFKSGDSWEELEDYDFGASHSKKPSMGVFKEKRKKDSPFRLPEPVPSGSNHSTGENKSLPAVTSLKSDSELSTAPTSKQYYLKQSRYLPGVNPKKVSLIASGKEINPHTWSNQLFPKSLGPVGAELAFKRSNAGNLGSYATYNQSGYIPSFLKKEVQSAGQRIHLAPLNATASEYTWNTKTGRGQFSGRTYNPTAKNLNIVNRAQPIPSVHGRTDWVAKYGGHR

MUSK = MUSK (Homo sapiens, UniProt O15146); assay: KINOMEscan: MUSK; format: binding; conditions: 1000 nM, read-out: Percent Control
Sequence of MUSK (O15146 24-869): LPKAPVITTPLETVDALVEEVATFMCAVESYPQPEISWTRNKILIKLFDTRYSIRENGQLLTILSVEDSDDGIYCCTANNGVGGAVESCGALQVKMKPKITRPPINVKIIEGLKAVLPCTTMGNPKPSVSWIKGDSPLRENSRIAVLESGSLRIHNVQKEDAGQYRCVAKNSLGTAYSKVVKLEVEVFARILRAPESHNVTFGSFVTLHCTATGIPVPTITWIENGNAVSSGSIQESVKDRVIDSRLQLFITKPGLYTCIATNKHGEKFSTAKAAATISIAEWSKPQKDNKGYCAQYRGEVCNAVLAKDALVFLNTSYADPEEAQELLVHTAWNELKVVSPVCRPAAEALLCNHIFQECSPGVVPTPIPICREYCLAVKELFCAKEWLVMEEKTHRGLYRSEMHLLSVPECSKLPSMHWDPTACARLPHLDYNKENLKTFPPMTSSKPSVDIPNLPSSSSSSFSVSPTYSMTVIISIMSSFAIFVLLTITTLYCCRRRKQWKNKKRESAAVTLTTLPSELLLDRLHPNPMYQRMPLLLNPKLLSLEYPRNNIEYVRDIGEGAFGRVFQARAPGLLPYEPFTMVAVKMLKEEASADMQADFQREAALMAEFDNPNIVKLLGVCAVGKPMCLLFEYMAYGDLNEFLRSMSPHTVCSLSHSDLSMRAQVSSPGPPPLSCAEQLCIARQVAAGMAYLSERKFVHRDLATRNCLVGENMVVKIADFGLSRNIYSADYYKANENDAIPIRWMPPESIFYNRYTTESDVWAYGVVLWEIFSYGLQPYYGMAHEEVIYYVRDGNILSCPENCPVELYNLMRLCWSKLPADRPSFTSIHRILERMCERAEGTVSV

Sequence of IRAK1 (P51617 whole entry): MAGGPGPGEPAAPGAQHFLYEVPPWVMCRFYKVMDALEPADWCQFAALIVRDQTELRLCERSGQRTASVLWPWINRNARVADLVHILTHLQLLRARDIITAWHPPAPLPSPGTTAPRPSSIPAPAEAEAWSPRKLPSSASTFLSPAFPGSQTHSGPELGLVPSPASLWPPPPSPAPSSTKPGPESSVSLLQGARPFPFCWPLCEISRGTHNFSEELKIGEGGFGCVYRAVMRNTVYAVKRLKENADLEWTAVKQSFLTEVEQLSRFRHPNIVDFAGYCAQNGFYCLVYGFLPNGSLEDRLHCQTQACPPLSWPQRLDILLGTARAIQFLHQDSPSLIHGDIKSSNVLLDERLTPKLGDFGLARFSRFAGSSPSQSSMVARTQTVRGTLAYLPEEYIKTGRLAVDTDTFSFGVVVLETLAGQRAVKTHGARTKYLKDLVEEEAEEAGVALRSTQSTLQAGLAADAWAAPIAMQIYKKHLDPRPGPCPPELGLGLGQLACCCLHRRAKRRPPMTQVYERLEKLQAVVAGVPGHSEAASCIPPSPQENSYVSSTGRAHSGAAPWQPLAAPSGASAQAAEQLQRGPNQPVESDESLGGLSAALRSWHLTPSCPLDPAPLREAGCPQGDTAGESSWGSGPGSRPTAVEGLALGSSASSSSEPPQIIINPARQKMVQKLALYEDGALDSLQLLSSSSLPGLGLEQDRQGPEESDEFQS

In the case of `COc1cc(F)ccc1-c1cc(Nc2cc(CS(C)(=N)=O)ccn2)ncc1F` (stereo not drawn) [VIP152], the inhibition at 1 µM (IRAK1; 1000 nM) is reported as 98.4%, the remaining binding at 0.1 µM (IRAK1; IRAK1, 100 nM, read-out: Percent Control) is reported as 59% and the remaining binding at 1 µM (IRAK1; IRAK1, 1000 nM, read-out: Percent Control) is reported as 1.6%. The BTG1 protein (CLL patient samples) was “not”, the JUNB protein (CLL patient samples) was “decrease” and the MCL1 protein (CLL patient samples) was “decrease”. The “expression of tristetrapolin (ZFP36)” value (CLL patient samples; seven CLL patient samples) was “decreased expression”, the IC50 (α2C receptor) was 340 nM and the “% Inh.” value (Rolipram) was 1%. It also gave an IC50 (Sigma σ1) of 1780 nM, a Ki (Sigma σ1) of 750 nM and a nH (Sigma σ1) of 0.75. It also gave an inhibition at 10 µM (Sigma σ1; Conc. 10 μM) of 71%, a remaining binding at 0.1 µM (STK36) of 100% and a remaining binding at 1 µM (BIKE) of 38%. For the same compound, the remaining binding at 1 µM (DAPK1) was 87%, the “Percent Control” value (FLT3(ITD,D835V)) was 60% and the remaining binding at 1 µM (IKK-epsilon) was 51%. It also gave a remaining binding at 1 µM (LRRK2) of 50%, a remaining binding at 1 µM (MAK) of 84% and a remaining binding at 1 µM (MUSK) of 58%.
